Assay results reported in patent US10266526B2, “Substituted 1,2,3-triazoles as SMYD inhibitors for treating cancer” (EPIZYME, INC., priority 2014, dated 2019).
Where a name gives a salt, the structure may show the parent alone.

Key:
SMYD3 [1] = biological target: T1, SMYD3 (Homo sapiens (Human), UniProt Q9H7B4); experiment: SMYD3 biochemical assay (SMYD3 enzyme assay on MEKK2 protein substrate, 3H-SAM scintillation proximity assay); conditions: read-out: SMYD3 Biochem IC50
Method in brief: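 Detection used scintillation proximity beads to capture ³H-methylated GST-MEKK2 after quench with 100 uM final cold SAM. The reaction was started by SAM/MEKK2 addition after a 30 min RT compound–enzyme preincubation. Enzyme was tag-free full-length human SMYD3 from E. coli, in buffer of 25 mM Tris-Cl pH 8.0, 1 mM TCEP, 0.005% BSG, 0.005% Tween 20.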

SMYD3 [2] = biological target: T1, SMYD3; experiment: SMYD3 cell assay (Trimethyl-MEKK2 In-Cell Western in 293T/17 cells transfected with MEKK2-flag and SMYD3); assay type: cell-based
Method in brief: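 Methanol-fixed cells stained in-cell Western for trimethyl-MEKK2 and anti-flag. Ratio-based % inhibition against DMSO and background controls; IC50 by non-linear regression, triplicate wells.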

[3] = Table 3A, average of n = 1 to n = 50
[4] = Table 3A, average of n = 1 to n = 50, read-out: SMYD3 cell IC50

T1 sequence (Q9H7B4 whole entry): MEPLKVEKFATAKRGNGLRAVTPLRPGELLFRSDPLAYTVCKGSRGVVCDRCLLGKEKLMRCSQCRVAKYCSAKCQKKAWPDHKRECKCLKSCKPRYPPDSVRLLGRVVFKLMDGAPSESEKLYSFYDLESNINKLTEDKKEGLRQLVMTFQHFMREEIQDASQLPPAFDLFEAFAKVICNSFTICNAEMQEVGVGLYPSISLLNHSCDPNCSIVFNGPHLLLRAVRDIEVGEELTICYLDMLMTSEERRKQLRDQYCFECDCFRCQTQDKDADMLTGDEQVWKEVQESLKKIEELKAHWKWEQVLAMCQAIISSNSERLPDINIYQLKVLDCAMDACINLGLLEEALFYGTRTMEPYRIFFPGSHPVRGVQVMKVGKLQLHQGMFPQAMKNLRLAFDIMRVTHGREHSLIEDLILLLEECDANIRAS

| SMILES | IC50 (SMYD3 [1]; [3]) | IC50 (SMYD3 [2]; [4]) | IC50 (SMYD3 [1]) | IC50 (SMYD3 [2]) |
| --- | --- | --- | --- | --- |
| CC(C)(N)c1ccc(S(=O)(=O)N2[C@@H]3CC[C@H]2C[C@@H](NC(=O)c2ccc4c(c2)CC(=O)N4)C3)cc1 [compound 612, N-((1R,3r,5S)-8-((4-(2-aminopropan-2-yl)phenyl)sulfonyl)-8-azabicyclo[3.2.1]octan-3-yl)-2-oxoindoline-5-carboxamide] | 30.7 nM | 2530 nM | – | – |
| CC(C)(N)c1ccc(S(=O)(=O)N2[C@@H]3CC[C@H]2C[C@@H](NC(=O)c2cc4c(cc2Cl)NC(=O)C4)C3)cc1 [compound 613, N-((1R,3r,5S)-8-((4-(2-aminopropan-2-yl)phenyl)sulfonyl)-8-azabicyclo[3.2.1]octan-3-yl)-6-chloro-2-oxoindoline-5-carboxamide] | 37.1 nM | 1770 nM | – | – |
| O=C1Cc2cc(C(=O)N[C@H]3C[C@H]4CC[C@@H](C3)N4S(=O)(=O)CCN3CCCC3)c(Cl)cc2N1 [compound 614, 6-chloro-2-oxo-N-((1R,3r,5S)-8-((2-(pyrrolidin-1-yl)ethyl)sulfonyl)-8-azabicyclo[3.2.1]octan-3-yl)indoline-5-carboxamide] | 46 nM | 380 nM | – | – |
| O=C1Cc2cc(C(=O)N[C@H]3C[C@H]4CC[C@@H](C3)N4S(=O)(=O)CCN3CCCC3)ccc2N1 [compound 615, 2-oxo-N-((1R,3r,5S)-8-((2-(pyrrolidin-1-yl)ethyl)sulfonyl)-8-azabicyclo[3.2.1]octan-3-yl)indoline-5-carboxamide] | – | 761 nM | 49.7 nM | – |
| CCc1cnnc(C(=O)N[C@H]2C[C@H]3CC[C@@H](C2)N3S(=O)(=O)N2CCC(N)CC2)c1 [compound 616, N-[(1R,3r,5S)-8-(4-aminopiperidine-1-sulfonyl)-8-azabicyclo[3.2.1]octan-3-yl]-5-ethylpyridazine-3-carboxamide Trifluoroacetate] | – | 540 nM | 49.9 nM | – |
| CN1C(=O)Cc2cc(C(=O)N[C@H]3C[C@H]4CC[C@@H](C3)N4S(=O)(=O)CC3CCNCC3)c(Cl)cc21 [compound 617, 6-chloro-1-methyl-2-oxo-N-((1R,3r,5S)-8-((piperidin-4-ylmethyl)sulfonyl)-8-azabicyclo[3.2.1]octan-3-yl)indoline-5-carboxamide] | 52.3 nM | 2960 nM | – | – |
| NC1CCN(S(=O)(=O)N2[C@@H]3CC[C@H]2C[C@@H](NC(=O)c2nnc(C4CC4)s2)C3)CC1 [compound 618, N-((1R,3r,5S)-8-((4-aminopiperidin-1-yl)sulfonyl)-8-azabicyclo[3.2.1]octan-3-yl)-5-cyclopropyl-1,3,4-thiadiazole-2-carboxamide] | 55.8 nM | 348 nM | – | – |
| CCc1cnnc(C(=O)N[C@H]2CCN(S(=O)(=O)N3CCC(N)CC3)[C@@H](C)C2)c1 [compound 619, N-((2S,4S)-1-((4-aminopiperidin-1-yl)sulfonyl)-2-methylpiperidin-4-yl)-5-ethylpyridazine-3-carboxamide] | 59.6 nM | 468 nM | – | – |
| O=C1Cc2cc(C(=O)NC3CCN(S(=O)(=O)CC4CCNCC4)CC3)ccc2N1 [compound 620, 2-oxo-N-[1-[(piperidin-4-ylmethane)sulfonyl]piperidin-4-yl]-2,3-dihydro-1H-indole-5-carboxamide Trifluoroacetate] | 68.2 nM | ≥ 10000 nM | – | – |
| NCCCS(=O)(=O)N1CCC(NC(=O)c2cc3c(cc2Cl)NC(=O)C3)CC1 [compound 621, N-(1-((3-aminopropyl)sulfonyl)piperidin-4-yl)-6-chloro-2-oxoindoline-5-carboxamide] | 77.5 nM | 6840 nM | – | – |
| N[C@H]1CC[C@H](S(=O)(=O)N2[C@@H]3CC[C@H]2C[C@@H](NC(=O)c2ccc4c(c2)OC(F)(F)O4)C3)CC1 [compound 623, N-((1R,3R,5S)-8-(((1r,4R)-4-aminocyclohexyl)sulfonyl)-8-azabicyclo[3.2.1]octan-3-yl)-2,2-difluorobenzo[d][1,3]dioxole-5-carboxamide] | 136 nM | 896 nM | – | – |
| NCCCS(=O)(=O)N1CCC(NC(=O)c2ccc3c(c2)CC(=O)N3)CC1 [compound 624, N-(1-((3-aminopropyl)sulfonyl)piperidin-4-yl)-2-oxoindoline-5-carboxamide] | 159 nM | ≥ 10000 nM | – | – |
| NC1CCN(S(=O)(=O)N2[C@@H]3CC[C@H]2C[C@@H](NC(=O)c2ccc4c(c2)OC(F)(F)O4)C3)CC1 [compound 626, N-((1R,3r,5S)-8-((4-aminopiperidin-1-yl)sulfonyl)-8-azabicyclo[3.2.1]octan-3-yl)-2,2-difluorobenzo[d][1,3]dioxole-5-carboxamide] | 222 nM | 2970 nM | – | – |
| O=C(N[C@H]1C[C@H]2CC[C@@H](C1)N2S(=O)(=O)[C@H]1CC[C@H](NCc2ccccc2)CC1)c1ccc2c(c1)OC(F)(F)O2 [compound 627, N-((1R,3R,5S)-8-(((1r,4R)-4-(benzylamino)cyclohexyl)sulfonyl)-8-azabicyclo[3.2.1]octan-3-yl)-2,2-difluorobenzo[d][1,3]dioxole-5-carboxamide] | 225 nM | 1540 nM | – | – |
| O=C(N[C@H]1C[C@H]2CC[C@@H](C1)N2S(=O)(=O)CC1CCNCC1)c1ccc2c(c1)OC(F)(F)O2 [compound 628, 2,2-difluoro-N-((1R,3r,5S)-8-((piperidin-4-ylmethyl)sulfonyl)-8-azabicyclo[3.2.1]octan-3-yl)benzo[d][1,3]dioxole-5-carboxamide] | 232 nM | 3620 nM | – | – |
| CCc1cc(C(=O)N[C@@H]2CCN(S(=O)(=O)N3CCC(N)CC3)[C@@H](C)C2)ns1 [compound 629, N-((2S,4R)-1-(4-aminopiperidin-1-ylsulfonyl)-2-methylpiperidin-4-yl)-5-ethyl-1,2-thiazole-3-carboxamide] | 326 nM | 2080 nM | – | – |
| CN1CCC(CS(=O)(=O)N2[C@@H]3CC[C@H]2C[C@@H](NC(=O)c2ccc4c(c2)OC(F)(F)O4)C3)CC1 [compound 630, 2,2-difluoro-N-((1R,3r,5S)-8-(((1-methylpiperidin-4-yl)methyl)sulfonyl)-8-azabicyclo[3.2.1]octan-3-yl)benzo[d][1,3]dioxole-5-carboxamide] | 361 nM | 6550 nM | – | – |
| C[C@H]1C[C@H](NC(=O)c2nnc(C3CC3)s2)CCN1S(=O)(=O)N1CCC(N)CC1 [compound 631, N-((2S,4R)-1-((4-aminopiperidin-1-yl)sulfonyl)-2-methylpiperidin-4-yl)-5-cyclopropyl-1,3,4-thiadiazole-2-carboxamide] | 470 nM | 4900 nM | – | – |
| CC(=O)Nc1ccc(S(=O)(=O)N2CC[C@H](NC(=O)c3ccc4c(c3)CC(=O)N4)C[C@@H]2C)cc1 [compound 632, N-((2S,4S)-1-(4-acetamidophenylsulfonyl)-2-methylpiperidin-4-yl)-2-oxoindoline-5-carboxamide] | 526 nM | ≥ 10000 nM | – | – |
| NC1CCN(S(=O)(=O)N2[C@@H]3CC[C@H]2C[C@@H](NC(=O)c2cc(C4CC4)[nH]n2)C3)CC1 [compound 633, N-((1R,3r,5S)-8-((4-aminopiperidin-1-yl)sulfonyl)-8-azabicyclo[3.2.1]octan-3-yl)-5-cyclopropyl-1H-pyrazole-3-carboxamide] | 529 nM | ≥ 10000 nM | – | – |
| C[C@@H]1CN(S(=O)(=O)N2CCC(N)CC2)CC[C@@H]1NC(=O)c1cc2c(cc1Cl)NC(=O)C2 [compound 634, N-((3R,4S)-1-((4-aminopiperidin-1-yl)sulfonyl)-3-methylpiperidin-4-yl)-6-chloro-2-oxoindoline-5-carboxamide] | 529 nM | 972 nM | – | – |
| CCc1cccc(C(=O)N[C@H]2C[C@H]3CC[C@@H](C2)N3S(=O)(=O)CC2CCNCC2)c1 [compound 635, 3-ethyl-N-((1R,3r,5S)-8-((piperidin-4-ylmethyl)sulfonyl)-8-azabicyclo[3.2.1]octan-3-yl)benzamide] | 620 nM | ≥ 10000 nM | – | – |
| NC1CCN(S(=O)(=O)N2[C@@H]3CC[C@H]2C[C@@H](NC(=O)c2ccc4c(c2)OCC(=O)N4)C3)CC1 [compound 636, N-((1R,3r,5S)-8-((4-aminopiperidin-1-yl)sulfonyl)-8-azabicyclo[3.2.1]octan-3-yl)-3-oxo-3,4-dihydro-2H-benzo[b][1,4]oxazine-7-carboxamide] | 819 nM | – | – | ≥ 10000 nM |
| NC1CCN(S(=O)(=O)N2[C@@H]3CC[C@H]2C[C@@H](NC(=O)c2cnn(C4CC4)c2)C3)CC1 [compound 637, N-((1R,3r,5S)-8-((4-aminopiperidin-1-yl)sulfonyl)-8-azabicyclo[3.2.1]octan-3-yl)-1-cyclopropyl-1H-pyrazole-4-carboxamide] | 839 nM | ≥ 10000 nM | – | – |
| N[C@H]1CC[C@H](C(=O)N2[C@@H]3CC[C@H]2C[C@@H](NC(=O)c2ccc4c(c2)CC(=O)N4)C3)CC1 [compound 638, N-((1R,3R,5S)-8-((1r,4R)-4-aminocyclohexane-1-carbonyl)-8-azabicyclo[3.2.1]octan-3-yl)-2-oxoindoline-5-carboxamide] | 962 nM | ≥ 10000 nM | – | – |
| C[C@H]1C[C@@H](NC(=O)c2cnn(C3CC3)c2)CCN1S(=O)(=O)N1CCC(N)CC1 [compound 639, N-((2S,4S)-1-((4-aminopiperidin-1-yl)sulfonyl)-2-methylpiperidin-4-yl)-1-cyclopropyl-1H-pyrazole-4-carboxamide] | 1000 nM | ≥ 10000 nM | – | – |
| CC(=O)Nc1ccc(S(=O)(=O)N2CCC(NC(=O)c3cc4c(cc3Cl)NC(=O)C4)CC2)cc1 [compound 641, N-(1-((4-acetamidophenyl)sulfonyl)piperidin-4-yl)-6-chloro-2-oxoindoline-5-carboxamide] | 5930 nM | ≥ 10000 nM | – | – |
